PubChem BioAssay AID2305 (GlaxoSmithKline (GSK), 2010)

What follows are molecules tested on P. falciparum 3D7 growth, pLDH absorbance (assay: P. falciparum 3D7 growth inhibition, dose response, strain 3D7 (AID 2305)).
COc1ccc(NC(=O)CCNc2cc(C)nc(NCc3ccccc3C)n2)cc1 gave an IC50 of 1070 nM. In the case of Cc1cccc2[nH]c(-c3cccc(-c4cccc(NC(=O)c5ccc(C(N)=O)cc5)c4)c3)nc12, the IC50 is reported as 320 nM. Work on Cc1cnc(NCC2CCCCC2)nc1N[C@@H](CO)C(=O)Nc1ccccc1 yielded an IC50 of 1100 nM. In the case of Nc1nccc2ccc(-c3ccc(NC(=O)Nc4cc(C(F)(F)F)ccc4F)cc3)cc12, the IC50 is reported as 90 nM. O=C(Cc1ccc(Nc2nccc(Nc3cccc4[nH]ncc34)n2)cc1)Nc1ccc(C(F)(F)F)cc1 was tested, and the IC50 was 890 nM. Molecule Cc1ccnc(NC(c2cccc(Cl)c2Cl)c2ccc3cccnc3c2O)c1 (stereo not given) has an IC50 of 1000 nM. With OCCNc1nc(Nc2ccc(Cl)cc2)nc2ccccc12 the IC50 was 710 nM. CC(C)C[C@@H]1C(=O)N[C@H](C2Cc3ccccc3C2)C(=O)N1[C@@H](C(=O)O)c1ccc(F)cc1F was tested, and the IC50 was 840 nM. Molecule COc1cccc2cc(C(=O)N[C@@H](CC(C)C)C(=O)N[C@H](/C=N/NC(=O)OC(C)(C)C)CC(C)C)oc12 has an IC50 of 900 nM. Work on COc1ccc2nc(-c3ccccc3)cc(NN=Cc3ccc([N+](=O)[O-])cc3)c2c1 yielded an IC50 of 150 nM. For Cc1cc(NCc2ccccc2)nc(NCc2ccccc2)n1, the IC50 was 970 nM. With COc1ccc(NC(=O)NC2CCN(CCCOc3ccnc4cc(Cl)ccc34)C2)cc1OC (stereo not given) the IC50 was 790 nM. Work on N#Cc1ccc(-c2ccc(C(=O)NCCCCN3CCC(c4ccc5c(c4OCC(N)=O)CCCC5)CC3)nc2)cc1 yielded an IC50 of 730 nM. Molecule CCN(CCCN1CCCCC1)c1cc(C)nc(Nc2ccc(OC)cc2)n1 has an IC50 of 620 nM. In the case of CN1CCN(c2ccc3nc(-c4ccc5nc(-c6ccc([N+](=O)[O-])c(N)c6)[nH]c5c4)[nH]c3c2)CC1, the IC50 is reported as 100 nM. Work on O=C(Nc1ccc(Br)c(Cl)c1)c1cc([N+](=O)[O-])cc2cn[nH]c12 yielded an IC50 of 1060 nM. CC(=O)Nc1ncc(C(=O)Nc2cccc(-c3cccc(-c4nc5ccc(C(F)(F)F)cc5[nH]4)c3)c2)s1 showed an IC50 of 180 nM. With CCCc1cc(O)c2c3c(c(=O)oc2c1)CN(C)CC3 the IC50 was 870 nM. COc1ccccc1N1CCN(c2cccc(F)c2C#N)CC1 was tested, and the IC50 was 960 nM. Molecule COc1ccc(N2CCN(c3nc(N)c4cc(OC)c(OC)cc4n3)CC2C)cc1 (stereo not given) has an IC50 of 1420 nM. Work on CN(C)CCN1CCN(Cc2ccc(-c3cccc(-c4nc5ccccc5[nH]4)c3)cc2)CC1 yielded an IC50 of 200 nM. CNCc1cccc(-c2ccc3ccnc(N)c3c2)c1 gave an IC50 of 90 nM. N#Cc1cccc(Nc2nccc(NCC(O)c3cccc(C(F)(F)F)c3)n2)c1 (stereo not given) gave an IC50 of 550 nM. Molecule Cc1cc(C(=O)Nc2ccc(-c3nc4ccccc4[nH]3)cc2)ccc1[N+](=O)[O-] has an IC50 of 670 nM. For CC(C)c1ccc2c(c1)C(=O)c1ccc(C(=O)O)cc1S2(=O)=O, the IC50 was 470 nM. With CC(=O)Nc1ccc(OCCCN(Cc2ccccc2OC(F)(F)F)c2ccc(C(F)(F)F)c(C#N)c2)c(Cl)c1 the IC50 was 810 nM. Work on Oc1cccc(-c2nc(-c3cccc(I)c3)c(-c3ccc(-c4nc(-c5cccc(O)c5)[nH]c4-c4cccc(I)c4)cc3)[nH]2)c1 yielded an IC50 of 920 nM. For CCN(CC)CCCNc1nccc(N2CCc3ncnc(Nc4ccc(OCc5cccc(F)c5)c(Cl)c4)c3C2)n1, the IC50 was 110 nM. OCc1ccc2nc3c(cc2c1)-c1cccc2cccc-3c12 was tested, and the IC50 was 660 nM. For CCC(CC)(Cc1ccccc1)NC(=O)[C@H](CC1CCCCC1)Nc1ccc(C#N)c2ccccc12, the IC50 was 630 nM. Molecule Cc1cc(NC(=O)c2cc(Br)ccc2Cl)n(-c2nc(C)c(C)c(=O)[nH]2)n1 has an IC50 of 1130 nM. Cc1ccc(NC(=O)c2ccc3ncccc3c2)cc1OC1CCN(Cc2ccc(F)cc2)C1 (stereo not given) gave an IC50 of 1360 nM. Work on c1ccc(CCNc2ccnc(Nc3ccc4n[nH]nc4c3)n2)cc1 yielded an IC50 of 860 nM. For CN(C)CCOc1cc(NC(=O)Nc2ccc(-c3ccccc3)cc2Cl)ccc1I, the IC50 was 250 nM. O=c1c2ccc(F)cc2sn1-c1ccc(Cl)cc1 showed an IC50 of 1150 nM. For O=S1c2ccccc2Sc2ccccc21, the IC50 was 170 nM. CN1CCC(c2ccc(NC(=O)c3ccc(-c4cccc(C(F)(F)F)c4)o3)cc2)CC1 showed an IC50 of 1130 nM. Cc1cc(Nc2ncc(C#N)c(Nc3ccccc3C(N)=O)n2)ccc1N1CCN(C)CC1 showed an IC50 of 10 nM. CCCCCN1CCCN(Cc2cccc(NC(=O)c3cc4ccccc4s3)c2)CC1 was tested, and the IC50 was 590 nM. CCc1cccc2c(C#N)cn(CC(=O)Nc3ccc(OC)cc3)c12 gave an IC50 of 770 nM.
